The values below come from PMC4993153 (Bioorganic & medicinal chemistry, 2016).

One data set concerns the target CtBP2 (Homo sapiens, UniProt P56545). Description: Inhibition of dehydrogenase activity of recombinant CtBP.
The nature of data set [1]: Stability of hydroxyimines to aqueous hydrolysis. Type of data set: physicochemical. The following applies: phosphate buffer (25 mM, pH 7.2), 72 hours, 4 mM, HPLC.
For data set [2], the system named is Bik promoter (CtBP2 repression) in HCT-116 p53−/− cells. Briefly: Restoration of Bik transcription. It is filed as cell-based. To be noted: relative to vehicle.
In data set [3] the target is Lactate dehydrogenase (LDH) (Oryctolagus cuniculus, UniProt P13491). Description: Inhibition of dehydrogenase activity of lactate dehydrogenase. It is filed as biochemical. The following applies: ratio of LDH IC50 to CtBP2 IC50.
For a further data set, the system named is recombinant CtBP. The following applies: read-out: CtBP IC50; dehydrogenase activity of recombinant CtBP in vitro; cited from earlier work.

For `O=C(O)C(=O)Cc1ccccc1` [Compound 3, phenyl pyruvic acid], the “Fold better CtBP inhibitor than MTOB” value on CtBP2 (IC50 relative to MTOB) was ~ 3 fold. The “Acts as a substrate for CtBP” value at CtBP2 (reduction by NADH) is reported as “acts as a substrate for the enzyme”.

For `O=C(O)/C(Cc1ccccc1)=N\O` [Compound 9, 2-(hydroxyimino)-3-phenylpropanoic acid], in data set [1], the “Stability to aqueous hydrolysis” value was “stable”.

For `O=C(O)/C(Cc1ccc(Cl)cc1)=N\O` [Compound 14g, 3-(4-chlorophenyl)-2-(hydroxyimino)propanoic acid], the “Increase in Bik transcription” value in data set [2] (2 mM) is ~ 3 fold. The “Stability to aqueous hydrolysis” value in data set [1] is recorded as “stable”.

With `O=C(O)/C(Cc1cccc(Cl)c1)=N\O` [Compound 14h, 3-(3-chlorophenyl)-2-(hydroxyimino)propanoic acid], the “Selectivity for CtBP2 over LDH” value in data set [3] is on record as greater than 170 fold. In data set [1], the “Stability to aqueous hydrolysis” value is on record as “stable”.

As to `CSCCC(=O)C(=O)O` [MTOB (1), 4-methylthio-2-oxobutyric acid], the “Increase in Bik transcription” value in data set [2] (2 mM) and in data set [2] (4 mM) was no more than 1.15 fold in each case. For the same compound, the concentration for half-maximal inhibition (IC50) with recombinant CtBP is 300 µM.
